What was measured:
IDO [1] = target: T1, IDO (Homo sapiens, UniProt P14902); conditions: J F Reinhard et al., 1996, read-out: IC50 (affinity to IDO); cited from earlier work
Target sequence in this assay (P14902 whole entry, species assumed): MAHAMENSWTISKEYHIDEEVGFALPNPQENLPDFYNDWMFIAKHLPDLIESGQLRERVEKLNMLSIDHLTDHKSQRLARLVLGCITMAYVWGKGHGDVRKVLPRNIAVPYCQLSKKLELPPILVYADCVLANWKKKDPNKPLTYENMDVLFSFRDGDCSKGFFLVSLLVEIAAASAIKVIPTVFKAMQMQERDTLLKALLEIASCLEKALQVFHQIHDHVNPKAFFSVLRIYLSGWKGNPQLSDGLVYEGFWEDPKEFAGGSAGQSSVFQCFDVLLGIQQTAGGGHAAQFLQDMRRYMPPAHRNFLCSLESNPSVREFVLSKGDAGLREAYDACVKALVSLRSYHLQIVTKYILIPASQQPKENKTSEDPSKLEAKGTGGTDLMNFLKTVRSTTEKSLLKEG

human TDO2 = target: T2, human TDO2 (Homo sapiens, UniProt P48775); test: Tryptophan degradation and kynurenin production by 293-E cells transfected with human TDO2, HPLC of supernatant; type: cell-based; conditions: 293-E hTDO cells, overnight, HBSS with 25 μM tryptophan, increasing inhibitor concentrations (FIG. 4)
T2 construct: expressed in transfected cells; host or cells: human 293-EBNA (293-E) cells

IDO [2] = target: T1, IDO; test: Tryptophan degradation and kynurenin production by 293-E cells transfected with human IDO, HPLC of supernatant; type: cell-based; parameters: expressed in transfected cells; host or cells: human 293-EBNA (293-E) cells; conditions: 293-E hIDO cells, overnight, HBSS with 25 μM tryptophan, increasing inhibitor concentrations (FIG. 4)
Method: FIG. 4. Line graphs depicting concentrations of tryptophan and kynurenine in culture supernatants of different transfected cells. Control human 293-EBNA cells (293-E) (FIG. 4A), 293-E cells transfected with human IDO (293-E hIDO) (FIG. 4B) or human 293-E cells transfected with human TDO2 (293-E hTDO) (FIG. 4C) were incubated overnight (4×10^5 cells/2000) in Hank's balanced Salt solution (HBSS) supplemented with 25 μM tryptophan and increasing concentrations of the 680C91 inhibitor compound ([inh]). The concentrations (μM) of tryptophan ([Trp], ⋄) and kynurenin ([Kyn], □) were measured by HPLC in the supernatant.
A TDO inhibitor, 680C91, was described in Salter, M., R. Hazelwood, C. I. Pogson, R. Iyer, and D. J. Madge. 1995. Biochem. Pharmacol. 49:1435-1442. We synthesized this compound and tested its capacity to block tryptophan degradation by human 293 cells transfected with TDO2.
Target sequence in this assay (P14902 whole entry): as the sequence (P14902 whole entry, species assumed) above

[3] = target: T3, TDO2 in Head and Neck carcinoma cell line 2720 (SENY) (Homo sapiens, UniProt P48775); test: Tryptophan consumption and kynurenine production by Head and Neck carcinoma cell line 2720 (SENY), HPLC of supernatant; type: cell-based; conditions: at 20 μM; SENY cells, overnight, HBSS with 50 μM tryptophan
T3 construct: To confirm the expression of enzymatically active TDO2, we used Head and Neck carcinoma cell line 2720 (SENY); endogenous in cells; host or cells: Head and Neck carcinoma cell line 2720 (SENY)
Method: FIG. 5. A bar graph depicting tryptophan consumption and kynurenine production in head and neck carcinoma cell line 2720 (SENY) in the presence or absence of the TDO-specific inhibitor 680C91 or the IDO inhibitor mb.
To confirm the expression of enzymatically active TDO2, we used Head and Neck carcinoma cell line 2720 (SENY), which expresses 12.7 molecules of TDO2 mRNA/cell. We measured tryptophan consumption and kynurenine production in the supernatant of 5×10^5 cells incubated overnight in 2 ml of HBSS containing 50 μM tryptophan. Tryptophan and kynurenine concentrations were measured by HPLC using standard methods.
See FIG. 5 for results of this assay. To confirm that the tryptophan-degrading activity was due to TDO, TDO-specific inhibitor 680C91 was included at 5 μM or 20 μM. As control, an IDO inhibitor (mb) was also used at 5 μM or 20 μM. A tryptophan-degrading activity was detected and was clearly observed by looking at the production of kynurenine: 11 μM as compared to 0 in the control without cells. This activity was mostly attributable to TDO, as it was blocked by the TDO-specific inhibitor 680C91 (50% inhibition at 20 μM).

T2 sequence (P48775 whole entry): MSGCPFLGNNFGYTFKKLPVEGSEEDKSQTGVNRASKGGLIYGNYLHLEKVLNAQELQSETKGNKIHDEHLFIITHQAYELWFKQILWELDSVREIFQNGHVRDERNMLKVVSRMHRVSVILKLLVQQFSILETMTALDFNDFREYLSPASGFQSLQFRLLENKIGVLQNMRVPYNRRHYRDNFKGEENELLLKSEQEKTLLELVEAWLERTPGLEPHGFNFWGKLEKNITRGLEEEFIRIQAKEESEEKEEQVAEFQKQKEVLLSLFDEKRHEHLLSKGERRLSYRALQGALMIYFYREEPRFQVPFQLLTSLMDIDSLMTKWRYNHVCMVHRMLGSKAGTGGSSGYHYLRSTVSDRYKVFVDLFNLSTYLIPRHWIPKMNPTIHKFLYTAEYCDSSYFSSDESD
T3 sequence (P48775 whole entry): as above

Q: For `C(=C\c1c[nH]c2ccccc12)/c1ccncc1` [540C91, (E)-3-[2-(4′-pyridyl)-vinyl]-1H-indole], which IC50 (IDO [1]) is on record?
A: 1150 µM

Q: Which “block of tryptophan degradation and kynurenin production by TDO-expressing cells” value (human TDO2) does the source give for `Fc1ccc2c(/C=C/c3cccnc3)c[nH]c2c1` [680C91, (E)-6-fluoro-3-[2-(3-pyridyl)vinyl]-1H-indole] here?
A: efficiently blocked

Q: What about the “block of tryptophan degradation and kynurenin production by IDO-expressing cells” value (IDO [2]) of the same molecule?
A: failed to block

Q: And the “inhibition of tryptophan-degrading activity (kynurenine production)” value [3]?
A: 50%

— patent publication US20110159017A1, “TRYTOPHAN CATABOLISM IN CANCER TREATMENT AND DIAGNOSIS” (Ludwig Institute for Cancer Research Ltd., priority 2008, published 2011)
